Data reported in patent publication US20130266636A1, “METHODS FOR BLOCKING CELL PROLIFERATION AND TREATING DISEASES AND CONDITIONS RESPONSIVE TO CELL GROWTH INHIBITION” (THE REGENTS OF THE UNIVERSITY OF CALIFORNIA, priority 2010, published 2013).

Columns and labels:
[1] = test system: MDA-MB-231 human breast carcinoma cells; experiment: Cells in pro-metaphase in orthotopic breast tumor xenografts; assay type: in vivo, mice; conditions: systemic KG5 50 mg/Kg, after three days
Source text: FIG. 34. CRAF is required for mitotic progression: (a) Cell cycle analysis of WT and CRAF−/− MEFs. Left graph, Cells in G2/M were quantified by flow cytometry. Right graph, Cells at pro-metaphase were quantified using confocal microscopy. Error bars represent s.d. (n=4); * two tailed p value=0.0079 (left graph) and p=0.0055 (right graph) using a Mann Whitney U test. (b) WT and CRAF−/− MEFs were synchronized at pro-metaphase with a thymidine-nocodazole block as described in these Methods, and subsequently released from the blockade and allowed to progress through mitosis. Quantification of cells in G2/M was performed by flow cytometry. Error bars represent s.d. (n=3). (c) Confocal microscopy images of WT and CRAF−/− cells progressing through mitosis at 0, 60 and 360 minutes after release from pro-metaphase blockade. Cells were stained for α-tubulin (in red) and DNA (TOPRO-3™ in blue). Scale bar, 10 μm. […] Cell cycle analysis and quantification of cells in G2/M was performed by flow cytometry. […] (e) Immunohistochemical staining of phospho-5338 CRAF and phospho-histone H3 (mitotic marker) in orthotopic breast and tumor xenografts untreated or treated systemically with KG5 (50 mg/Kg for 3 days Scale bar, 50 μm. […]. Circles indicate cells in pro-metaphase. Right, Quantification of cells in pro-metaphase. Error bars represent s.d. (n=12); * two tailed p value=0.006 using Student T test. […]

[2] = test system: XPA-1-RFP pancreatic tumor xenografts; experiment: Orthotopic XPA-1-RFP pancreatic tumor xenograft in Nestin-GFP mice; assay type: in vivo
Method: FIG. 16 and FIG. 17 illustrate data showing that KG5 inhibits pancreatic tumor growth and reduces tumor vascular density, as described in Murphy (2010) Proc. Natl. Acad. Sci. USA, Mar. 2, 2010; vol. 107(9): 4299-4304. FIGS. 16A and 16B, and FIGS. 17A and 17B: Real-time fluorescent imaging of XPA-1-RFP pancreatic tumor xenografts in the pancreas of Nestin-GFP mice (n=5/group) treated with either vehicle (FIG. 16A, 17A) or KG5 (FIG. 16B, 17B) (50 mg/kg, i.p., bid). Drug treatments were started 3 days after surgical orthotopic implantation (SOT) of XPA-1-RFP tumors, and tumor progression was monitored every 3 days by whole-animal imaging (Scale bar, 10 mm). FIG. 17(C) graphically illustrates a plot of tumor surface area over time for the vehicle- and KG5-treated groups, Tumor surface area was calculated by adding the total pixels of both the ventral and lateral images of the tumor. *P=0.034. FIG. 17(D) graphically illustrates average body weight of the mice measured each day of whole-animal imaging described in A and B. FIG. 16(C) graphically illustrates total weights of resected primary tumors on day 15 post-SOT. *P=0.022.
Animals were systemically treated with either vehicle or KG5 (50 mg/kg, bid) beginning 3 days after surgical orthotopic implantation (SOI) of a tumor fragment. Tumor growth was monitored noninvasively by whole-body imaging. […] Animals treated with KG5 produced an average tumor weight of 26.7 mg compared to 74.1 mg for vehicle-treated animals (FIG. 16C). At this time, GFP-labeled blood vessels were imaged and tumor-associated blood vessel density was quantified by measuring the ratio of total blood vessel length to tumor volume. […] The mean vessel length/tumor volume was 2.5 mm/mm^3 compared to 0.2 mm/mm^3 for vehicle and KG5, respectively.
FIG. 18 further illustrates data from the studies of FIG. 16 and FIG. 17: FIG. 18(A) and FIG. 18(B) illustrate representative fluorescent images of endothelial GFP expression (GFP expression driven by the Nestin promoter) within the XPA-1-RFP tumors after resection. Images were taken 15 days post-SOI (Scale bar, 200 μm); FIG. 18(C) illustrates a plot of tumor vessel density from images acquired as in E, Blood vessels imaged as in E were converted to length (mm) and normalized to tumor volume (mm^3). *P=0.01.

Compound: CSc1nc(N)cc(Oc2ccc(-c3nnc(Nc4cccc(C(F)(F)F)c4)[nH]3)cc2)n1 [KG5]
- cells at pro-metaphase in orthotopic breast tumor tissues [1]: accumulation of cells at pro-metaphase
- body weight ([2]; 50 mg/kg bid): no weight loss
- signs of lethargy ([2]; 50 mg/kg bid): did not demonstrate any signs of lethargy
- tumor growth by whole-body imaging ([2]; 50 mg/kg bid, 12 days post-SOI, compared to vehicle): completely suppressed
- average tumor weight ([2]; 50 mg/kg i.p. bid from 3 days after SOI, resected primary tumors day 15 post-SOI, vehicle 74.1 mg): 26.7 mg
- mean vessel length/tumor volume ([2]; 50 mg/kg i.p. bid, 15 days post-SOI, vehicle 2.5 mm/mm^3): 0.2 mm/mm^3
